Molecular target: T1, PDE4B (human recombinant) (Homo sapiens, UniProt Q07343)
T1 construct: made in house
Assay: Inhibition of PDE4B activity: SPA and/or Fluorescence Polarisation (FP) assay
Assay type: biochemical
Details: one reading (n=1) or average of 2 or more readings, read-out: PDE4B pIC50 (±about 0.5) (converted)
Protocol: The ability of compounds to inhibit catalytic activity at PDE4B or 4D (human recombinant), PDE3 (from bovine aorta), PDE5 (human recombinant) or PDE6 (from bovine retina) can optionally be determined by Scintillation Proximity Assay (SPA) in a 96-well format.
The enzyme concentration is adjusted so that no more than 20% hydrolysis of the substrate defined below occurs in control wells without compound, during the incubation. For the PDE3, PDE4B and PDE4D assays, [5′,8-3H]Adenosine 3′,5′-cyclic phosphate (Amersham Pharmacia Biotech, code TRK.559; or Amersham Biosciences UK Ltd, Pollards Wood, Chalfont St Giles, Buckinghamshire HP8 4SP, UK) is added to give 0.05 uCi per well and about 10 nM final concentration. […] Plates containing assay mixture, suitably approx. 100 ul volume of assay mixture, are mixed on an orbital shaker for 5 minutes and incubated at ambient temperature for 1 hour. Phosphodiesterase SPA beads (Amersham Pharmacia Biotech, code RPNQ 0150) are added (about 1 mg per well) to terminate the assay. Plates are sealed and shaken and allowed to stand at ambient temperature for 35 minutes to 1 hour (suitably 35 minutes) to allow the beads to settle. […] Curves are analysed using ActivityBase and XLfit (ID Business Solutions Limited, 2 Ocean Court, Surrey Research Park, Guildford, Surrey GU2 7QB, United Kingdom). Results are expressed as pIC50 values.
The ability of compounds to inhibit catalytic activity at PDE4B (human recombinant) or PDE4D (human recombinant) can optionally be determined by IMAP Fluorescence Polarisation (FP) assay (IMAP Explorer kit, available from Molecular Devices Corporation, Sunnydale, Calif., USA; Molecular Devices code: R8062) in 384-well format.
The IMAP FP assay is able to measure PDE activity in an homogenous, non-radioactive assay format. The FP assay uses the ability of immobilised trivalent metal cations, coated onto nanoparticles (tiny beads), to bind the phosphate group of Fl-AMP that is produced on the hydrolysis of fluorescein-labelled (Fl) cyclic adenosine mono-phosphate (Fl-cAMP) to the non-cyclic Fl-AMP form. […] Binding of Fl-AMP product to the beads (coated with the immobilised trivalent cations) slows the rotation of the bound Fl-AMP and leads to an increase in the fluorescence polarisation ratio of parallel to perpendicular light. Inhibition of the PDE reduces/inhibits this signal increase.
The enzyme level is set by experimentation so that reaction is linear throughout the incubation. Fluorescein adenosine 3′,5′-cyclic phosphate (from Molecular Devices Corporation, Molecular Devices code: R7091) is added to give about 40 nM final concentration (final assay volume usually ca. 20-40 ul, suitably ca. 20 ul). Plates are mixed on an orbital shaker for 10 seconds and incubated at ambient temperature for 40 minutes. IMAP binding reagent (as described above, from Molecular Devices Corporation, Molecular Devices code: R7207) is added (60 ul of a 1 in 400 dilution in binding buffer of the kit stock solution) to terminate the assay. Plates are allowed to stand at ambient temperature for 1 hour. The Fluorescence Polarisation (FP) ratio of parallel to perpendicular light is measured using an Analyst™ plate reader (from Molecular Devices Corporation). […] Curves are analysed using ActivityBase and XLfit (ID Business Solutions Limited, 2 Ocean Court, Surrey Research Park, Guildford, Surrey GU2 7QB, United Kingdom). Results are expressed as plC50 values.

T1 sequence (Q07343 1-564 isoform Q07343-2): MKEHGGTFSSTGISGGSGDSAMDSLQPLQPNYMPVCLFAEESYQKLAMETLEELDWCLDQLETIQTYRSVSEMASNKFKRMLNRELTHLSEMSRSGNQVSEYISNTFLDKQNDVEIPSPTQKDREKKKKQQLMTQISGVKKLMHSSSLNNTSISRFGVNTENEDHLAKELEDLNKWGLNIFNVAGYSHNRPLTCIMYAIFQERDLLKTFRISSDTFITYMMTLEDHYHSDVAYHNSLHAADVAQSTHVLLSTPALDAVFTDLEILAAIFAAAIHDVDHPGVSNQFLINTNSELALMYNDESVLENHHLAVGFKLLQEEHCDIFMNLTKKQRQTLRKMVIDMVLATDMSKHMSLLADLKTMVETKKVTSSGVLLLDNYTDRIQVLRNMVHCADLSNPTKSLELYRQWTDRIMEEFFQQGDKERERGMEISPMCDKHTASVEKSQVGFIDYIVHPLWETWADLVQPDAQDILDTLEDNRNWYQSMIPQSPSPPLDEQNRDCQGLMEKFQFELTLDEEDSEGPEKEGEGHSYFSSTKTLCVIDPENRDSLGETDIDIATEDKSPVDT

`CCn1ncc2c(NC3CCOCC3)c(CNC(=O)c3ccc(C)nc3)c(C)nc21` [Example 337, N-{[1-ethyl-6-methyl-4-(tetrahydro-2H-pyran-4-ylamino)-1H-pyrazolo[3,4-b]pyridin-5-yl]methyl}-6-methyl-3-pyridinecarboxamide] was tested. Which IC50 did it give?
Its IC50 is 126 to 1000 pM.

With `CCc1nc2c(cnn2CC)c(NC2CCOCC2)c1CNC(=O)c1ccoc1C` [Example 195, N-{[1,6-diethyl-4-(tetrahydro-2H-pyran-4-ylamino)-1H-pyrazolo[3,4-b]pyridin-5-yl]methyl}-2-methyl-3-furancarboxamide] as the molecule, how does the IC50 read?
Its IC50 is 126 to 1000 pM.

How did the IC50 turn out when `CCn1ncc2c(NC3CCN(C(N)=O)CC3)c(CNC(=O)c3ccc(C4CCCC4)cc3)c(C)nc21` [Example 273, 4-{[5-({[(4-cyclopentylphenyl)carbonyl]amino}methyl)-1-ethyl-6-methyl-1H-pyrazolo[3,4-b]pyridin-4-yl]amino}-1-piperidinecarboxamide] was run?
Its IC50 is 10 to 100 pM.

For `CCc1nc2c(cnn2CC)c(NC2CCOCC2)c1CNC(=O)c1cccc(N2CCCC2=O)c1` [Example 149, N-{[1,6-diethyl-4-(tetrahydro-2H-pyran-4-ylamino)-1H-pyrazolo[3,4-b]pyridin-5-yl]methyl}-3-(2-oxo-1-pyrrolidinyl)benzamide], which IC50 is on record?
The IC50 was 10 to 100 pM.

How did the IC50 turn out when `CCc1nc2c(cnn2CC)c(NC2CCOCC2)c1CNC(=O)c1cc(S(=O)(=O)N(CC)CC)ccc1OC` [Example 185, 5-[(diethylamino)sulfonyl]-N-{[1,6-diethyl-4-(tetrahydro-2H-pyran-4-ylamino)-1H-pyrazolo[3,4-b]pyridin-5-yl]methyl}-2-(methyloxy)benzamide] was run?
The IC50 was 10 to 100 pM.

Which IC50 does the source give for `CCc1nc2c(cnn2CC)c(NC2CCOCC2)c1CNC(=O)c1cc(C#N)c(C(C)C)cc1OC` [Example 188, 5-cyano-N-{[1,6-diethyl-4-(tetrahydro-2H-pyran-4-ylamino)-1H-pyrazolo[3,4-b]pyridin-5-yl]methyl}-4-(1-methylethyl)-2-(methyloxy)benzamide] here?
Its IC50 is 10 to 100 pM.

With `CCc1nc2c(cnn2CC)c(NC2CCOCC2)c1CNC(=O)c1csc(C)n1` [Example 309, N-{[1,6-diethyl-4-(tetrahydro-2H-pyran-4-ylamino)-1H-pyrazolo[3,4-b]pyridin-5-yl]methyl}-2-methyl-1,3-thiazole-4-carboxamide] as the molecule, how does the IC50 read?
Its IC50 is 126 to 1000 pM.

With `CCc1nc2c(cnn2CC)c(NC2CCOCC2)c1CNC(=O)c1coc(C)n1` [Example 310, N-{[1,6-diethyl-4-(tetrahydro-2H-pyran-4-ylamino)-1H-pyrazolo[3,4-b]pyridin-5-yl]methyl}-2-methyl-1,3-oxazole-4-carboxamide] as the molecule, how does the IC50 read?
The IC50 was 126 to 1000 pM.

Which IC50 does the source give for `CCn1ncc2c(NC3CCOCC3)c(CNC(=O)c3ccc(C(C)(C)C)cc3)c(C)nc21` [Example 277, 4-(1,1-dimethylethyl)-N-{[1-ethyl-6-methyl-4-(tetrahydro-2H-pyran-4-ylamino)-1H-pyrazolo[3,4-b]pyridin-5-yl]methyl}benzamide] here?
Its IC50 is 10 to 100 pM.

Which IC50 does the source give for `CCc1nc2c(cnn2CC)c(NC2CCOCC2)c1CNC(=O)c1ccc2c(c1)CCCC2` [Example 177, N-{[1,6-diethyl-4-(tetrahydro-2H-pyran-4-ylamino)-1H-pyrazolo[3,4-b]pyridin-5-yl]methyl}-5,6,7,8-tetrahydro-2-naphthalenecarboxamide] here?
Its IC50 is 126 to 1000 pM.

`CCc1nc2c(cnn2CC)c(NC2CCN(C(N)=O)CC2)c1CNC(=O)c1ccccc1O` [Example 211, 4-{[1,6-diethyl-5-({[(2-hydroxyphenyl)carbonyl]amino}methyl)-1H-pyrazolo[3,4-b]pyridin-4-yl]amino}-1-piperidinecarboxamide] was tested. Which IC50 did it give?
Its IC50 is 10 to 100 pM.

For `CCc1nc2c(cnn2CC)c(NC2CCOCC2)c1CNC(=O)c1cnc(C)s1` [Example 311, N-{[1,6-diethyl-4-(tetrahydro-2H-pyran-4-ylamino)-1H-pyrazolo[3,4-b]pyridin-5-yl]methyl}-2-methyl-1,3-thiazole-5-carboxamide], which IC50 is on record?
The IC50 was 10 to 100 pM.

Which IC50 does the source give for `CCn1ncc2c(NC3CCOCC3)c(CNC(=O)c3coc(C)n3)c(C)nc21` [Example 318, N-{[1-ethyl-6-methyl-4-(tetrahydro-2H-pyran-4-ylamino)-1H-pyrazolo[3,4-b]pyridin-5-yl]methyl}-2-methyl-1,3-oxazole-4-carboxamide] here?
The IC50 was 126 to 1000 pM.

Which IC50 does the source give for `CCc1nc2c(cnn2CC)c(NC2CCOCC2)c1CNC(=O)c1csc(C(F)(F)F)n1` [Example 339, N-{[1,6-diethyl-4-(tetrahydro-2H-pyran-4-ylamino)-1H-pyrazolo[3,4-b]pyridin-5-yl]methyl}-2-(trifluoromethyl)-1,3-thiazole-4-carboxamide] here?
Its IC50 is 10 to 100 pM.

With `CCn1ncc2c(NC3CCOCC3)c(CNC(=O)c3ccc(C(C)(C)C)cc3O)c(C)nc21` [Example 285, 4-(1,1-dimethylethyl)-N-{[1-ethyl-6-methyl-4-(tetrahydro-2H-pyran-4-ylamino)-1H-pyrazolo[3,4-b]pyridin-5-yl]methyl}-2-hydroxybenzamide] as the molecule, how does the IC50 read?
Its IC50 is 10 to 100 pM.

With `CCc1nc2c(cnn2CC)c(NC2CCOCC2)c1CNC(=O)c1ccc(F)cc1` [Example 307, N-{[1,6-diethyl-4-(tetrahydro-2H-pyran-4-ylamino)-1H-pyrazolo[3,4-b]pyridin-5-yl]methyl}-4-fluorobenzamide] as the molecule, how does the IC50 read?
The IC50 was 126 to 1000 pM.

How did the IC50 turn out when `CCc1nc2c(cnn2CC)c(NC2CCOCC2)c1CNC(=O)c1ccc(NC(C)=O)cc1` [Example 194, 4-(acetylamino)-N-{[1,6-diethyl-4-(tetrahydro-2H-pyran-4-ylamino)-1H-pyrazolo[3,4-b]pyridin-5-yl]methyl}benzamide] was run?
The IC50 was 10 to 100 pM.

`CCc1nc2c(cnn2CC)c(NC2CCOCC2)c1CN1Cc2ccc(F)cc2C1=O` [Example 315, 2-{[1,6-diethyl-4-(tetrahydro-2H-pyran-4-ylamino)-1H-pyrazolo[3,4-b]pyridin-5-yl]methyl}-6-fluoro-2,3-dihydro-1H-isoindol-1-one] was tested. Which IC50 did it give?
Its IC50 is 10 to 100 pM.

How did the IC50 turn out when `CCn1ncc2c(NC3CCOCC3)c(CNC(=O)c3ccc4c(=O)[nH][nH]c4c3)c(C)nc21` [Example 286, N-{[1-ethyl-6-methyl-4-(tetrahydro-2H-pyran-4-ylamino)-1H-pyrazolo[3,4-b]pyridin-5-yl]methyl}-3-oxo-2,3-dihydro-1H-indazole-6-carboxamide] was run?
Its IC50 is 126 to 1000 pM.

For `CCc1nc2c(cnn2CC)c(NC2CCOCC2)c1CN1Cc2nnsc2C1=O` [Example 344, 5-{[1,6-diethyl-4-(tetrahydro-2H-pyran-4-ylamino)-1H-pyrazolo[3,4-b]pyridin-5-yl]methyl}-4,5-dihydro-6H-pyrrolo[3,4-d][1,2,3]thiadiazol-6-one], which IC50 is on record?
Its IC50 is 126 to 1000 pM.

With `CCc1nc2c(cnn2CC)c(NC2CCN(C(N)=O)CC2)c1CNC(=O)c1ccc(C(C)(C)C)cc1` [Example 243, 4-({5-[({[4-(1-dimethylethyl)phenyl]carbonyl}amino)methyl]-1,6-diethyl-1H-pyrazolo[3,4-b]pyridin-4-yl}amino)-1-piperidinecarboxamide] as the molecule, how does the IC50 read?
The IC50 was 10 to 100 pM.

How did the IC50 turn out when `CCc1nc2c(cnn2CC)c(NC2CCOCC2)c1CNC(=O)c1cccc2c1OCC2` [Example 161, N-{[1,6-diethyl-4-(tetrahydro-2H-pyran-4-ylamino)-1H-pyrazolo[3,4-b]pyridin-5-yl]methyl}-2,3-dihydro-1-benzofuran-7-carboxamide] was run?
Its IC50 is 10 to 100 pM.

How did the IC50 turn out when `CCn1ncc2c(NC3CCOCC3)c(CNC(=O)c3ccccc3F)c(C)nc21` [Example 282, N-{[1-ethyl-6-methyl-4-(tetrahydro-2H-pyran-4-ylamino)-1H-pyrazolo[3,4-b]pyridin-5-yl]methyl}-2-fluorobenzamide] was run?
Its IC50 is 126 to 1000 pM.

— patent US20090131431A1, “Pyrazolo[3,4-b]pyridine compounds, and their use as a PDE4 inhibitors” (priority 2005, published 2009)
